System: SW 1271 complex spheroids, viability
Test: Anticancer human tumor SW 1271 cell line growth inhibition [LSD1];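 further: spheroids exposed to agents for 7 days before luminescence read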;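 on viability, T/C: 100% = DMSO vehicle control viability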
Settings: for IC50: curve of first compound; for viability, T/C: stronger effect = lower value
In short: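 Multicellular complex spheroids of tumor cells with human endothelial cells (HUVEC) and mesenchymal stem cells; the LSD1 inhibitor iadademstat was combined with standard-of-care or investigational agents. Top concentration at or near clinical Cmax, half-log dilutions; final DMSO ≤0.25%.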

[1] = second compound 0.1 µM, first compound 0.0316 µM
[2] = second compound 0.1 µM, first compound 0.1 µM
[3] = second compound 0.1 µM, first compound 0.316 µM
[4] = second compound 0.1 µM, first compound 1 µM
[5] = second compound 0.1 µM, first compound 3.16 µM
[6] = second compound 0.1 µM, first compound 10 µM
[7] = second compound 0.316 µM, first compound 0.0316 µM
[8] = second compound 0.316 µM, first compound 0.1 µM
[9] = second compound 0.316 µM, first compound 0.316 µM
[10] = second compound 0.316 µM, first compound 1 µM
[11] = second compound 0.316 µM, first compound 3.16 µM
[12] = second compound 0.316 µM, first compound 10 µM
[13] = second compound 1 µM, first compound 0.0316 µM
[14] = second compound 1 µM, first compound 0.1 µM
[15] = second compound 1 µM, first compound 0.316 µM
[16] = second compound 1 µM, first compound 1 µM
[17] = second compound 1 µM, first compound 3.16 µM
[18] = second compound 1 µM, first compound 10 µM
[19] = second compound 3.16 µM, first compound 0.0316 µM
[20] = second compound 3.16 µM, first compound 0.1 µM
[21] = second compound 3.16 µM, first compound 0.316 µM
[22] = second compound 3.16 µM, first compound 1 µM
[23] = second compound 3.16 µM, first compound 3.16 µM
[24] = second compound 3.16 µM, first compound 10 µM
[25] = second compound 10 µM, first compound 0.0316 µM
[26] = second compound 10 µM, first compound 0.1 µM
[27] = second compound 10 µM, first compound 0.316 µM
[28] = second compound 10 µM, first compound 1 µM
[29] = second compound 10 µM, first compound 3.16 µM
[30] = second compound 10 µM, first compound 10 µM
[31] = second compound 0.1 µM, first compound 0.00316 µM
[32] = second compound 0.1 µM, first compound 0.01 µM
[33] = second compound 0.316 µM, first compound 0.00316 µM
[34] = second compound 0.316 µM, first compound 0.01 µM
[35] = second compound 1 µM, first compound 0.00316 µM
[36] = second compound 1 µM, first compound 0.01 µM
[37] = second compound 3.16 µM, first compound 0.00316 µM
[38] = second compound 3.16 µM, first compound 0.01 µM
[39] = second compound 10 µM, first compound 0.00316 µM
[40] = second compound 10 µM, first compound 0.01 µM

Compound `CC(C)c1c(-c2ccccc2)nc2c(C#N)c[nH]n2c1=O` + NC1CC1c1ccc(-c2cccc(O)c2)cc1 has an IC50 (second compound 0.1 µM) of over 10 µM, an IC50 (second compound 0.316 µM) of over 10 µM and an IC50 (second compound 1 µM) of over 10 µM. For the same compound, the IC50 (second compound 3.16 µM) was 9.23 µM, the IC50 (second compound 10 µM) was over 10 µM and the viability, T/C [1] was 71.8%. For the same compound, the viability, T/C [2] was 86%, the viability, T/C [3] was 78.7% and the viability, T/C [4] was 77.5%. It also gave a viability, T/C [5] of 73.2%, a viability, T/C [6] of 72.9% and a viability, T/C [7] of 74.7%. It also gave a viability, T/C [8] of 70.4%, a viability, T/C [9] of 80.9% and a viability, T/C [10] of 52.4%. It also gave a viability, T/C [11] of 58.5%, a viability, T/C [12] of 61.6% and a viability, T/C [13] of 66.4%. It also gave a viability, T/C [14] of 96.2%, a viability, T/C [15] of 78.4% and a viability, T/C [16] of 75%. For the same compound, the viability, T/C [17] was 58.6%, the viability, T/C [18] was 61.3% and the viability, T/C [19] was 70.5%. The viability, T/C [20] was 68.4%, the viability, T/C [21] was 70% and the viability, T/C [22] was 58.2%. The viability, T/C [23] was 58.9%, the viability, T/C [24] was 49.2% and the viability, T/C [25] was 56.6%. The viability, T/C [26] was 63%, the viability, T/C [27] was 82.6% and the viability, T/C [28] was 61.6%. For the same compound, the viability, T/C [29] was 50.8% and the viability, T/C [30] was 54.1%.

In the case of `COc1ccc([C@@H](O)c2cc(-c3ncnc4cc(N5CCOCC5)ccc34)c(F)cc2Cl)nn1` + NC1CC1c1ccc(-c2cccc(O)c2)cc1, the IC50 (second compound 0.1 µM) is reported as 0.616 µM, the IC50 (second compound 0.316 µM) is reported as 0.463 µM and the IC50 (second compound 1 µM) is reported as 0.664 µM. For the same compound, the IC50 (second compound 3.16 µM) was 0.355 µM, the IC50 (second compound 10 µM) was 0.351 µM and the viability, T/C [1] was 78.6%. For the same compound, the viability, T/C [2] was 79.9%, the viability, T/C [3] was 55% and the viability, T/C [4] was 44.4%. The viability, T/C [5] was 31%, the viability, T/C [6] was 21.9% and the viability, T/C [7] was 76.4%. The viability, T/C [8] was 76.8%, the viability, T/C [9] was 52.2% and the viability, T/C [10] was 38%. It also gave a viability, T/C [11] of 37.3%, a viability, T/C [12] of 22.1% and a viability, T/C [13] of 72.9%. The viability, T/C [14] was 76.6%, the viability, T/C [15] was 60.3% and the viability, T/C [16] was 43.7%. It also gave a viability, T/C [17] of 31.7%, a viability, T/C [18] of 26.4% and a viability, T/C [19] of 69.5%. The viability, T/C [20] was 64.8%, the viability, T/C [21] was 49.2% and the viability, T/C [22] was 38.5%. For the same compound, the viability, T/C [23] was 30.5%, the viability, T/C [24] was 19.7% and the viability, T/C [25] was 60.5%. The viability, T/C [26] was 58.4%, the viability, T/C [27] was 50.3% and the viability, T/C [28] was 40.2%. The viability, T/C [29] was 27.5% and the viability, T/C [30] was 20.5%.

`CC[C@@]1(O)C(=O)OCc2c1cc1n(c2=O)Cc2cc3c(CN(C)C)c(O)ccc3nc2-1` + NC1CCC(NC2CC2c2ccccc2)CC1 gave an IC50 (second compound 0.1 µM) of over 0.1 µM, an IC50 (second compound 0.316 µM) of over 0.1 µM and an IC50 (second compound 1 µM) of 0.0661 µM. For the same compound, the IC50 (second compound 3.16 µM) was 0.0716 µM, the IC50 (second compound 10 µM) was over 0.1 µM and the viability, T/C (second compound 0.1 µM, first compound 0.000316 µM) was 89.2%. It also gave a viability, T/C (second compound 0.1 µM, first compound 0.001 µM) of 93.8%, a viability, T/C [31] of 78.8% and a viability, T/C [32] of 63%. It also gave a viability, T/C [1] of 58%, a viability, T/C [2] of 56.4% and a viability, T/C (second compound 0.316 µM, first compound 0.000316 µM) of 90%. It also gave a viability, T/C (second compound 0.316 µM, first compound 0.001 µM) of 74.2%, a viability, T/C [33] of 71.6% and a viability, T/C [34] of 72.5%. It also gave a viability, T/C [7] of 62%, a viability, T/C [8] of 58.9% and a viability, T/C (second compound 1 µM, first compound 0.000316 µM) of 73.4%. For the same compound, the viability, T/C (second compound 1 µM, first compound 0.001 µM) was 94.5%, the viability, T/C [35] was 80.1% and the viability, T/C [36] was 66.7%. For the same compound, the viability, T/C [13] was 59%, the viability, T/C [14] was 45.4% and the viability, T/C (second compound 3.16 µM, first compound 0.000316 µM) was 95.9%. It also gave a viability, T/C (second compound 3.16 µM, first compound 0.001 µM) of 78.2%, a viability, T/C [37] of 72.9% and a viability, T/C [38] of 68.3%. It also gave a viability, T/C [19] of 49.7%, a viability, T/C [20] of 49.6% and a viability, T/C (second compound 10 µM, first compound 0.000316 µM) of 88.3%. The viability, T/C (second compound 10 µM, first compound 0.001 µM) was 84.2%, the viability, T/C [39] was 78.2% and the viability, T/C [40] was 60.3%. It also gave a viability, T/C [25] of 57.5% and a viability, T/C [26] of 52.2%.

Work on `COc1cc(C2c3cc4c(cc3C(OC3OC5COC(C)OC5C(O)C3O)C3COC(=O)C23)OCO4)cc(OC)c1O` (stereo not given) + NC1CCC(NC2CC2c2ccccc2)CC1 yielded an IC50 (second compound 0.1 µM) of 2.66 µM, an IC50 (second compound 0.316 µM) of over 3 µM and an IC50 (second compound 1 µM) of over 3 µM. It also gave an IC50 (second compound 3.16 µM) of over 3 µM, an IC50 (second compound 10 µM) of over 3 µM and a viability, T/C (second compound 0.1 µM, first compound 0.00949 µM) of 77%. The viability, T/C (second compound 0.1 µM, first compound 0.03 µM) was 76.8%, the viability, T/C (second compound 0.1 µM, first compound 0.0949 µM) was 80.5% and the viability, T/C (second compound 0.1 µM, first compound 0.3 µM) was 68.9%. The viability, T/C (second compound 0.1 µM, first compound 0.949 µM) was 78.7%, the viability, T/C (second compound 0.1 µM, first compound 3 µM) was 47% and the viability, T/C (second compound 0.316 µM, first compound 0.00949 µM) was 88.7%. It also gave a viability, T/C (second compound 0.316 µM, first compound 0.03 µM) of 94.4%, a viability, T/C (second compound 0.316 µM, first compound 0.0949 µM) of 75% and a viability, T/C (second compound 0.316 µM, first compound 0.3 µM) of 66.7%. The viability, T/C (second compound 0.316 µM, first compound 0.949 µM) was 58.4%, the viability, T/C (second compound 0.316 µM, first compound 3 µM) was 64.1% and the viability, T/C (second compound 1 µM, first compound 0.00949 µM) was 80.2%. For the same compound, the viability, T/C (second compound 1 µM, first compound 0.03 µM) was 80.2%, the viability, T/C (second compound 1 µM, first compound 0.0949 µM) was 74.2% and the viability, T/C (second compound 1 µM, first compound 0.3 µM) was 75%. It also gave a viability, T/C (second compound 1 µM, first compound 0.949 µM) of 66.7%, a viability, T/C (second compound 1 µM, first compound 3 µM) of 56.9% and a viability, T/C (second compound 3.16 µM, first compound 0.00949 µM) of 95.7%. The viability, T/C (second compound 3.16 µM, first compound 0.03 µM) was 70.9%, the viability, T/C (second compound 3.16 µM, first compound 0.0949 µM) was 71.8% and the viability, T/C (second compound 3.16 µM, first compound 0.3 µM) was 73.4%. It also gave a viability, T/C (second compound 3.16 µM, first compound 0.949 µM) of 58.9%, a viability, T/C (second compound 3.16 µM, first compound 3 µM) of 60.8% and a viability, T/C (second compound 10 µM, first compound 0.00949 µM) of 77%. It also gave a viability, T/C (second compound 10 µM, first compound 0.03 µM) of 80.9%, a viability, T/C (second compound 10 µM, first compound 0.0949 µM) of 72.1% and a viability, T/C (second compound 10 µM, first compound 0.3 µM) of 72.2%. The viability, T/C (second compound 10 µM, first compound 0.949 µM) was 58.4% and the viability, T/C (second compound 10 µM, first compound 3 µM) was 64.3%.

Work on `Nc1ncn(C2CC(O)C(CO)O2)c(=O)n1` (stereo not given) + NC1CCC(NC2CC2c2ccccc2)CC1 yielded an IC50 (second compound 0.1 µM) of over 1 µM, an IC50 (second compound 0.316 µM) of over 1 µM and an IC50 (second compound 1 µM) of over 1 µM. The IC50 (second compound 3.16 µM) was over 1 µM, the IC50 (second compound 10 µM) was over 1 µM and the viability, T/C [31] was 83.6%. The viability, T/C [32] was 95.2%, the viability, T/C [1] was 90% and the viability, T/C [2] was 74.5%. For the same compound, the viability, T/C [3] was 86.5%, the viability, T/C [4] was 81.3% and the viability, T/C [33] was 91.3%. It also gave a viability, T/C [34] of 82.6%, a viability, T/C [7] of 92.8% and a viability, T/C [8] of 81.3%. The viability, T/C [9] was 66.6%, the viability, T/C [10] was 76.7% and the viability, T/C [35] was 85.8%. It also gave a viability, T/C [36] of 81.2%, a viability, T/C [13] of 75.9% and a viability, T/C [14] of 76.7%. It also gave a viability, T/C [15] of 66.2%, a viability, T/C [16] of 72.4% and a viability, T/C [37] of 82.3%. It also gave a viability, T/C [38] of 93.9%, a viability, T/C [19] of 74.1% and a viability, T/C [20] of 80.6%. It also gave a viability, T/C [21] of 66.5%, a viability, T/C [22] of 77.2% and a viability, T/C [39] of 95.7%. The viability, T/C [40] was 89.9%, the viability, T/C [25] was 84.8% and the viability, T/C [26] was 81.8%. It also gave a viability, T/C [27] of 81.3% and a viability, T/C [28] of 91.1%.
